This experiment deals with P2Y purinoceptor 12 (Homo sapiens, UniProt Q9H244). Briefly: Binding affinity against Purinergic receptor P2Y12 using [3H]2-methylthio-ADP as radioligand. The experiment is classed as tissue-based.
Sequence of P2Y purinoceptor 12 (Q9H244 whole entry): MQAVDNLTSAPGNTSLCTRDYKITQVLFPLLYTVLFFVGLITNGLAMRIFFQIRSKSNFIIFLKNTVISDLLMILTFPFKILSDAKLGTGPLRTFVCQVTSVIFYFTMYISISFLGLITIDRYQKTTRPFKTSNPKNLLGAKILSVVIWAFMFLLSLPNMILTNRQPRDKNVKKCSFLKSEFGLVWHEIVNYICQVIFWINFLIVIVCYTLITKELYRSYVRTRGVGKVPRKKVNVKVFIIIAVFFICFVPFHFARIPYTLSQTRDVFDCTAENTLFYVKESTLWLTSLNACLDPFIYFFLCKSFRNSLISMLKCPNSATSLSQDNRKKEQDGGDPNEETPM

Take `CC(C(O)C(O)[C@@H](C)C1CC[C@H]2[C@@H]3CC[C@H]4C[C@H](OS(=O)(=O)O)[C@H](OS(=O)(=O)O)C[C@]4(C)[C@@]3(C)CC[C@]12C)C(C)(C)C` (some centres not stated): the IC50 (in general, the concentration that gives 50% inhibition) stood at 2.2 µM.
As for `CC(CC[C@@H](C)C1CC[C@H]2[C@@H]3C[C@H](OS(=O)(=O)O)[C@H]4C[C@H](OS(=O)(=O)O)[C@H](OS(=O)(=O)O)C[C@]4(C)[C@@]3(C)CC[C@]12C)C(C)(C)C` (some centres not stated), the figure is 0.48 µM.

The values above are taken from ChEMBL document CHEMBL1144962, “A new sterol sulfate, Sch 572423, from a marine sponge, Topsentia sp” (Bioorg Med Chem Lett, 2003).
